Laboratory results taken from US8247211B2, “Glycopeptide antibiotics” (American Cyanamid Company, priority 2001, dated 2012).

Key:
Experiment in all cases: In vitro antibacterial evaluation: minimum inhibitory concentration (MIC), broth dilution method
Assay type in all cases: cell-based
Enterococcus sp. = settings: 18 hours at 35° C.
Summary of the method: (§1)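 Inoculum: 5×10^5 CFU/mL. Range: 64-0.06 μg/mL. Medium: Muller-Hinton II […]; NCCLS M7-A2 broth dilution. Endpoint: lowest concentration inhibiting growth. Strains include methicillin-, penicillin- and/or vancomycin-resistant clinical isolates.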

Escherichia coli = settings: 18 hours at 35° C.
Summary of the method: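 NCCLS M7-A2 broth dilution with Mueller-Hinton II, testing 64-0.06 μg/mL antibiotic against 5×10^5 CFU/mL inocula. Test strains include recent methicillin-, penicillin- or vancomycin-resistant clinical isolates. MIC is the lowest concentration preventing growth.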

Staphylococcus sp. = system: Staphylococcus sp.
Summary of the method: as §1

Streptococcus sp. = settings: 18 hours at 35° C.
Summary of the method: as §1

[1] = broth dilution, inoculum 5×10^5 CFU/mL

N=C1NCC(C(O)C2NC(=O)C(Cc3ccc(OC4OC(CO)C(OC5OC6COC(c7ccccc7)OC6C(O)C5O)C(O)C4O)cc3)NC(=O)C(CC3CCCCC3)NC(=O)CNC(=O)C(CO)NC(=O)C(C(O)C3CNC(=N)N3C3OC(CO)C(O)C(O)C3O)NC2=O)N1 (stereo not drawn) [Example 199, Cyclo[3-cyclohexylalanyl-O-[4-O-(4,6-O-benzylidenehexopyranosyl)hexopyranosyl]tyrosyl-3-(2-iminoimidazolidin-4-yl)seryl-3-(3-hexopyranosyl-2-iminoimidazolidin-4-yl)-seryl-serylglycyl]]
32 µg/mL: MIC Escherichia coli (GC 4559) (Escherichia coli; Escherichia coli (GC 4559))
0.5 µg/mL: MIC Coagulase Negative Staphylococcus (GC 4548) (Staphylococcus sp.; strain GC 4548) | MIC Coagulase Negative Staphylococcus (GC 4549) (Staphylococcus sp.; strain GC 4549)
<0.12 µg/mL: MIC Streptococcus agalactiae (GC 4564) (Streptococcus sp.; Streptococcus agalactiae (GC 4564)) | MIC Streptococcus pneumoniae (ATCC 6301) (Streptococcus sp.; Streptococcus pneumoniae (ATCC 6301)) | MIC Streptococcus pneumoniae (GC 1894) (Streptococcus sp.; Streptococcus pneumoniae (GC 1894)) | MIC Streptococcus pneumoniae (GC 4565) (Streptococcus sp.; Streptococcus pneumoniae (GC 4565)) | MIC Streptococcus pyogenes (GC 4563) (Streptococcus sp.; Streptococcus pyogenes (GC 4563)) | MIC Streptococcus agalactiae (GC 4564) (Streptococcus sp.; [1]) | MIC Streptococcus pneumoniae (ATCC 6301) (Streptococcus sp.; [1]) | MIC Streptococcus pneumoniae (GC 1894) (Streptococcus sp.; [1]) | MIC Streptococcus pneumoniae (GC 4565) (Streptococcus sp.; [1]) | MIC Streptococcus pyogenes (GC 4563) (Streptococcus sp.; [1])
64 µg/mL: MIC Escherichia coli (ATCC 25922) (Escherichia coli; Escherichia coli (ATCC 25922))
2 µg/mL: MIC Enterococcus avium (GC 4558) (Enterococcus sp.; Enterococcus avium (GC 4558)) | MIC Enterococcus faecalis (GC 2242) (Enterococcus sp.; Enterococcus faecalis (GC 2242)) | MIC Enterococcus faecalis (GC 6189) (Enterococcus sp.; Enterococcus faecalis (GC 6189)) | MIC Enterococcus faecium (GC 4557) (Enterococcus sp.; Enterococcus faecium (GC 4557)) | MIC Enterococcus avium (GC 4558) (Enterococcus sp.; [1]) | MIC Enterococcus faecalis (GC 2242) (Enterococcus sp.; [1]) | MIC Enterococcus faecalis (GC 6189) (Enterococcus sp.; [1]) | MIC Enterococcus faecium (GC 4557) (Enterococcus sp.; [1]) | MIC Staphylococcus aureus (ATCC 29213) (Staphylococcus sp.; strain ATCC 29213) | MIC Staphylococcus aureus (GC 1131) (Staphylococcus sp.; strain GC 1131) | MIC Staphylococcus aureus (GC 3053) (Staphylococcus sp.; strain GC 3053) | MIC Staphylococcus aureus (GC 4541) (Staphylococcus sp.; strain GC 4541) | MIC Staphylococcus aureus (GC 4544) (Staphylococcus sp.; strain GC 4544) | MIC Coagulase Negative Staphylococcus (GC 4547) (Staphylococcus sp.; strain GC 4547)
1 µg/mL: MIC Escherichia coli (GC 4560) (Escherichia coli; Escherichia coli (GC 4560)) | MIC Staphylococcus aureus (GC 3051) (Staphylococcus sp.; strain GC 3051) | MIC Staphylococcus aureus (GC 4542) (Staphylococcus sp.; strain GC 4542) | MIC Staphylococcus aureus-SMITH (GC 4543) (Staphylococcus sp.; strain GC 4543) | MIC Staphylococcus aureus (GC 4545) (Staphylococcus sp.; strain GC 4545) | MIC Staphylococcus haemolyticus (GC 4546) (Staphylococcus sp.; strain GC 4546) | MIC Coagulase Negative Staphylococcus (GC 4551) (Staphylococcus sp.; strain GC 4551)
4 µg/mL: MIC Enterococcus faecalis (ATCC 29212) (Enterococcus sp.; Enterococcus faecalis (ATCC 29212)) | MIC Enterococcus faecalis (GC 2691) (Enterococcus sp.; Enterococcus faecalis (GC 2691)) | MIC Enterococcus faecalis (GC 3059) (Enterococcus sp.; Enterococcus faecalis (GC 3059)) | MIC Enterococcus faecalis (GC 4552) (Enterococcus sp.; Enterococcus faecalis (GC 4552)) | MIC Enterococcus faecalis (GC 4553) (Enterococcus sp.; Enterococcus faecalis (GC 4553)) | MIC Enterococcus faecalis (GC 4554) (Enterococcus sp.; Enterococcus faecalis (GC 4554)) | MIC Enterococcus faecium (GC 2243) (Enterococcus sp.; Enterococcus faecium (GC 2243)) | MIC Enterococcus faecium (GC 4556) (Enterococcus sp.; Enterococcus faecium (GC 4556)) | MIC Enterococcus faecalis (ATCC 29212) (Enterococcus sp.; [1]) | MIC Enterococcus faecalis (GC 2691) (Enterococcus sp.; [1]) | MIC Enterococcus faecalis (GC 3059) (Enterococcus sp.; [1]) | MIC Enterococcus faecalis (GC 4552) (Enterococcus sp.; [1]) | MIC Enterococcus faecalis (GC 4553) (Enterococcus sp.; [1]) | MIC Enterococcus faecalis (GC 4554) (Enterococcus sp.; [1]) | MIC Enterococcus faecium (GC 2243) (Enterococcus sp.; [1]) | MIC Enterococcus faecium (GC 4556) (Enterococcus sp.; [1])
